{"source": "paper PMC6934184", "about": "“Selective DNA-PKcs inhibition extends the therapeutic index of localized radiotherapy and chemotherapy” (The Journal of Clinical Investigation, 2019)", "biological_target": "T1, LRRK2 G2019S (Homo sapiens, UniProt Q5S007, G2019S)", "T1 construct": "purchased Thermo Fisher Scientific (Life Technologies) SelectScreen", "T1 sequence (Q5S007 whole entry G2019S)": "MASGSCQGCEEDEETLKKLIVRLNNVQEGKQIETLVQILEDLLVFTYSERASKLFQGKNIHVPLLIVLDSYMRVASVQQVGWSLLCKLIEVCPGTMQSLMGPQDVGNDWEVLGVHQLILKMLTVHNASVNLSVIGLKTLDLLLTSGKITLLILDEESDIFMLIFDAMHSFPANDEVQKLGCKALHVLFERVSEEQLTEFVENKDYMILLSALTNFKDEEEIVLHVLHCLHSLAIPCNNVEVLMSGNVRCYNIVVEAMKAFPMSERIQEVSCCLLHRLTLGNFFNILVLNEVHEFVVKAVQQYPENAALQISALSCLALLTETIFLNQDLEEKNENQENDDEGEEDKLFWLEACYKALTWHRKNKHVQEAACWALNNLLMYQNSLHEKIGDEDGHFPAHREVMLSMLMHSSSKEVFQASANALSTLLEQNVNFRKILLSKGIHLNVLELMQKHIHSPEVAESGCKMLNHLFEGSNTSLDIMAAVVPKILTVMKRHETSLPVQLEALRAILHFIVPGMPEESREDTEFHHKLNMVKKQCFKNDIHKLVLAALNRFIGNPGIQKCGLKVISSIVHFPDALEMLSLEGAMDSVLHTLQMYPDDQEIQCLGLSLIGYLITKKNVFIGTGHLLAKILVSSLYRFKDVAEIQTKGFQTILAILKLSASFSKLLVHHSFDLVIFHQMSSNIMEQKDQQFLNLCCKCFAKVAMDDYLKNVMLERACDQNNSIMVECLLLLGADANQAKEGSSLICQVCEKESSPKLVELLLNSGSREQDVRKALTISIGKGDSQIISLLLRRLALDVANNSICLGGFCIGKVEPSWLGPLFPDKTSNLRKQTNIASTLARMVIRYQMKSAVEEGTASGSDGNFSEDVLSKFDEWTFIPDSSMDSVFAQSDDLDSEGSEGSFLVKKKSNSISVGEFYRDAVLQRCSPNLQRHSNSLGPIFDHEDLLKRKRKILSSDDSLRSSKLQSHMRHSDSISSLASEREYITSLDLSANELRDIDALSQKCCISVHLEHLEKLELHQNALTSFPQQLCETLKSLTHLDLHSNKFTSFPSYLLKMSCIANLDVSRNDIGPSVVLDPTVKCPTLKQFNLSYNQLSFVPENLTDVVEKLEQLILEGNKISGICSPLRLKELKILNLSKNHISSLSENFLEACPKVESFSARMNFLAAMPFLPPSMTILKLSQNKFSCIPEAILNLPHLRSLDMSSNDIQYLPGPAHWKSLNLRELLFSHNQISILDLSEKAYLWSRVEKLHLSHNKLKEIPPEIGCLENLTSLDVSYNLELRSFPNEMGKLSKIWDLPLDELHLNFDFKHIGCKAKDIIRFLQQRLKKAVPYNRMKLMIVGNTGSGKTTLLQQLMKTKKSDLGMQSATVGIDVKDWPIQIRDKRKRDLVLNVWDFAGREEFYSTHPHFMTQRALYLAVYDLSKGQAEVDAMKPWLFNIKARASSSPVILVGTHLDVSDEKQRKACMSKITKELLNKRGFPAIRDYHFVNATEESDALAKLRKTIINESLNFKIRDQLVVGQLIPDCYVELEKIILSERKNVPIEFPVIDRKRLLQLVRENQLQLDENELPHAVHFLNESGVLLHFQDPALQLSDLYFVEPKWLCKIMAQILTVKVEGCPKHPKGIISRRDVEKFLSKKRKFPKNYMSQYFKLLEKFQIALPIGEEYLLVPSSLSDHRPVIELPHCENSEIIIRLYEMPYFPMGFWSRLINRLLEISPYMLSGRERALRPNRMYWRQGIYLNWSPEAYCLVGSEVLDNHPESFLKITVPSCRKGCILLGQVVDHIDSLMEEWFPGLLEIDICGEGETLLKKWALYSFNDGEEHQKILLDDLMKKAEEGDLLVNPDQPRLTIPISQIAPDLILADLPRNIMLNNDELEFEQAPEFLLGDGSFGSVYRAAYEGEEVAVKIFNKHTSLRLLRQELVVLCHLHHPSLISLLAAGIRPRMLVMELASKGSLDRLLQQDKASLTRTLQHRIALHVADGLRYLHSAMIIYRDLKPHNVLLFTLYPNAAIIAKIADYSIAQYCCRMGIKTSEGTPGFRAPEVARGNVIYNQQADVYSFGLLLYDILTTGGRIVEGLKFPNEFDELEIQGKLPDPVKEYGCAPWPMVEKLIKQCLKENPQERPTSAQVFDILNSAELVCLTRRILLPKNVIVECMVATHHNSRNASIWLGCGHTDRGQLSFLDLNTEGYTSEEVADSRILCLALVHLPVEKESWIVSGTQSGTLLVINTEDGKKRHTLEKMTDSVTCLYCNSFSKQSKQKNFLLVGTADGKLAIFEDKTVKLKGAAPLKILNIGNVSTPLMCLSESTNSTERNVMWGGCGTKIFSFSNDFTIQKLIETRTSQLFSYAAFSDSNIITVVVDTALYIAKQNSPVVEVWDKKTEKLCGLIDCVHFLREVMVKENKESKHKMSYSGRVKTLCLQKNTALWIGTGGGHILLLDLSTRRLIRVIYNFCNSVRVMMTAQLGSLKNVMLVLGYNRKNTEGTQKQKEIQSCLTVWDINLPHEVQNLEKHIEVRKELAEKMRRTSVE", "assay": "SelectScreen Adapta", "type": "biochemical", "procedure": "The in vitro kinase selectivity of NU5455 was determined using the SelectScreen Broad Assay Panel (Thermo Fisher Scientific) involving activity and binding assays (Supplemental Table 1). […] Class IA PI3Ks were measured using the p85α subunit.\nKinase [ATP] % Assay Kinase [ATP] % Assay Kinase [ATP] % Assay Kinase [ATP] % Assay […]\nSGK (SGK1) Km app 8.5 Z MAP4K2 (GCK) Km app 2.7 Z TLK2 n/a -0.3 L STK38 (NDR) n/a -5.9 L\nMERTK (cMER) Km app 8.3 Z CDK2/cyclin A Km app 2.7 Z TGFBR1 (ALK5) n/a -0.4 L MATK (HYL) Km app -6.3 Z\nFYN Km app 8.3 Z EPHA1 Km app 2.7 Z CLK3 Km app -0.5 Z ABL1 E255K Km app -6.6 Z\nTEC n/a 8.1 L CDK2/cyclin E1 n/a 2.7 L MAP3K14 (NIK) n/a -0.5 L STK17A (DRAK1) n/a -6.6 L\nKIT V654A n/a 8.1 L TESK2 n/a 2.7 L AKT3 (PKB gamma) Km app -0.5 Z JAK2 JH1 JH2 Km app -6.7 Z\nROS1 Km app 8.0 Z SPHK1 Km app 2.7 A MAP3K9 (MLK1) Km app -0.5 Z PRKACB (PRKAC beta) n/a -6.8 L\nFGFR3 K650E Km app 7.9 Z AMPK A2/B1/G1 Km app 2.6 Z IKBKB (IKK beta) Km app -0.6 Z PDGFRA (PDGFR alpha) Km app -6.8 Z\nRAF1 (cRAF) Y340D Y341D 100 7.9 Z DYRK3 Km app 2.6 Z CAMK2A (CaMKII alpha) Km app -0.6 Z NEK9 Km app -7.2 Z\nPI4KA (PI4K alpha) 10 7.8 A CSNK1D (CK1 delta) Km app 2.6 Z PRKCB1 (PKC beta I) Km app -0.7 Z PDK1 Km app -7.3 Z\nHIPK2 Km app 7.8 Z ACVR2A n/a 2.5 L TTK n/a -0.7 L RPS6KB1 (p70S6K) Km app -7.8 Z\nCSK Km app 7.6 Z DDR2 T654M n/a 2.5 L ZAK n/a -0.7 L STK38L (NDR2) n/a -8.4 L\nPRKCG (PKC gamma) Km app 7.6 Z JAK2 Km app 2.5 Z IKBKE (IKK epsilon) Km app -0.7 Z ABL1 G250E Km app -8.5 Z\nSRMS (Srm) Km app 7.5 Z HIPK3 (YAK1) Km app 2.5 Z CAMK2G (CaMKII gamma) n/a -0.8 L PRKD1 (PKC mu) Km app -8.5 Z\nYES1 Km app 7.4 Z AMPK (A1/B1/G2) n/a 2.4 L TLK1 n/a -0.8 L CDK5/p35 Km app -8.6 Z\nRPS6KA5 (MSK1) Km app 7.4 Z MYO3B (MYO3 beta) n/a 2.3 L MAPK12 (p38 gamma) Km app -0.8 Z PDGFRA T674I Km app -8.9 Z\nTNIK n/a 7.3 L PASK Km app 2.3 Z PRKCI (PKC iota) Km app -0.8 Z BLK Km app -8.9 Z\nFER Km app 7.1 Z ACVRL1 (ALK1) n/a 2.3 L PKN2 (PRK2) n/a -1.0 L PRKD2 (PKD2) Km app -9.1 Z\nCDK16 (PCTK1)/cyclin Y n/a 7.0 L EGFR (ErbB1) L861Q Km app 2.2 Z PIM1 Km app -1.0 Z CSNK1G2 (CK1 gamma 2) Km app -9.3 Z\nMST4 Km app 6.9 Z RPS6KA3 (RSK2) Km app 2.1 Z CDK5/p25 Km app -1.1 Z ROCK1 Km app -9.5 Z\nFLT1 (VEGFR1) Km app 6.5 Z STK23 (MSSK1) Km app 2.0 Z SRPK1 Km app -1.1 Z PRKCB2 (PKC beta II) Km app -9.6 Z\nDYRK1A Km app 6.4 Z ALK R1275Q n/a 2.0 L BRSK1 (SAD1) Km app -1.1 Z CSNK1G1 (CK1 gamma 1) Km app -9.9 Z\nPRKCD (PKC delta) Km app 6.2 Z TBK1 Km app 2.0 Z MAP3K3 (MEKK3) n/a -1.1 L ABL2 (Arg) Km app -10.3 Z\nEGFR (ErbB1) Km app 6.0 Z ACVR1B (ALK4) Km app 2.0 Z AMPK A1/B1/G1 Km app -1.2 Z STK3 (MST2) Km app -10.3 Z\nCDC7/DBF4 n/a 6.0 L CDK3/cyclin E1 n/a 1.9 L WNK3 n/a -1.2 L CAMK4 (CaMKIV) Km app -10.4 Z\nJAK3 Km app 6.0 Z KDR (VEGFR2) Km app 1.8 Z LATS1 n/a -1.3 L MKNK1 (MNK1) Km app -10.7 Z\nMAPK13 (p38 delta) Km app 5.8 Z ULK1 n/a 1.8 L DMPK n/a -1.5 L FLT3 ITD n/a -11.6 L\nFRAP1 (mTOR) Km app 5.7 Z AURKB (Aurora B) Km app 1.7 Z CDK2/cyclin A1 n/a -1.6 L CHEK2 (CHK2) Km app -11.7 Z\nKIT Y823D n/a 5.6 L LRRK2 Km app 1.7 A LIMK1 n/a -1.7 L LTK (TYK1) Km app -13.1 Z\nITK Km app 5.5 Z MAP2K3 (MEK3) n/a 1.6 L DYRK1B Km app -1.8 Z JAK2 JH1 JH2 V617F Km app -13.8 Z\nKIT Km app 5.3 Z DAPK1 Km app 1.6 A DDR1 n/a -1.8 L EPHA8 Km app -13.8 Z\nCDK7/cyclin H/MNAT1 Km app 5.3 A EPHA6 n/a 1.6 L BTK Km app -2.0 Z EGFR (ErbB1) T790M L858R Km app -14.1 Z\nRET Km app 5.2 Z MAP4K1 (HPK1) n/a 1.6 L ADRBK1 (GRK2) Km app -2.0 Z MET M1250T Km app -14.5 Z […]"}
{"smiles": "CN(C(=O)CN1CCOCC1)c1ccc2sc3c(-c4cccc5c(=O)cc(N6CC7CCC(C6)O7)oc45)cccc3c2c1", "note": "[NU5455]", "values": [{"measurement": "inhibition at 1 µM", "result": 3, "unit": "%"}]}
